# Experimental data from patent publication US5712151A, “Antifungal agent” (Merck & Co., Inc., priority 1996, dated 1998).
# Key:
# Type in all cases: cell-based
# [1] = system: Candida pseudotropicalis (MY2099); assay: broth microdilution assay (MIC/MFC), Candida pseudotropicalis (MY2099); settings: Kluyveromyces marxianus
# Experimental: (§1) In the microbroth dilution assay, microorganisms were selected by streaking a yeast culture on Sabouraud dextrose agar (SDA) incubating for 24-48 hours at 35°-37° C., thereafter selected 3 to 5 characteristic colonies and transferring to a fresh plate and incubating under similar conditions. From the regrowth, 3 to 5 colonies were selected and suspended in 10 milliliters of YM broth (Difco) and incubated for 4 hours at 35°-37° C. shaking at 225 rpm. The 4 hour broth cultures were adjusted optically to 86% transmission resulting in a concentration of 1-5×10^6 cfu/ml which was further diluted 1:100 in YNBD (yeast nitrogen base with 1% dextrose) to obtain a concentration of 1-5×10^4 cfu/ml for use as inocula. […]
# (§2) The plates containing the diluted compounds were then inoculated with 75 μl/well of the appropriate microorganism and incubated for 48 hours at 35°-37° C. with MIC (minimum inhibitory concentration) determinations carried out after 24 hours of incubation (except Cryptococcus strains which are read at 48 hours). […]
# (§3) After recording MICs at 24 hours, the microtiter plates were shaken gently to resuspend the cells. […] For Cryptococcus neoformans, SDA plates were inoculated at 48 hours after recording MICs and incubated 48 hours before reading the MFC. […]
# [2] = system: Candida parapsilosis (MY1010); assay: broth microdilution assay (MIC/MFC), Candida parapsilosis (MY1010); settings: Lodderomyces parapsilosis
# Experimental: as §1, §2, §3
# [3] = system: Candida tropicalis (MY1124); assay: broth microdilution assay (MIC/MFC), Candida tropicalis (MY1124)
# Experimental: as §1, §2, §3
# [4] = system: Aspergillus fumigatus (MY4839); assay: broth microdilution assay (MIC), Aspergillus fumigatus (MY4839); settings: read-out: Minimum Inhibitory Concentration (MIC)
# Experimental: (§4) The test compound was dissolved at […] in 10% DMSO and diluted 2× into the first well to achieve a concentration of 256 μg/ml at 5% DMSO in the first well. Compounds are subsequently serially diluted 2× and cell suspension is added to each well resulting in an additional 2× dilution of compound. 75 μl of said solution is delivered to each well in column 1 of a 96-well, U-bottomed microtiter plate. The compounds in column 1 were then serially diluted two-fold to yield concentrations from 64 μg/ml to 0.03 μg/ml.
# (§5) The plates containing the diluted compounds were then inoculated with 75 μl/well of the appropriate microorganism and incubated for 48 hours at 35°-37° C. with MIC (minimum inhibitory concentration) determinations carried out after 24 hours of incubation (except Cryptococcus strains which are read at 48 hours). Growth and sterility controls for each organism and sterility checks for the compounds also were carried out.
# [5] = system: Cryptococcus neoformans (MY2062); assay: broth microdilution assay (MIC/MFC), Cryptococcus neoformans (MY2062); settings: 48 hours
# Experimental: as §1, §2, §3
# panel of fungi = assay: broth microdilution assay (MIC and MFC) against a panel of fungi; settings: control compound amphotericin B
# Experimental: as §1, §2, §3
# [6] = system: filamentous fungi (Aspergillus flavus, Fusarium oxysporum, Ustilago zeae and the like); assay: agar plate inhibition zone test with filamentous fungi; settings: methanol solutions on agar plates; 28° C. or 37° C., 24 hours
# Experimental: The compound is also useful for inhibiting the growth of filamentous fungi. Such use may be illustrated in the following tests with Aspergillus flavus, Fusarium oxysporum, Ustilago zeae and the like. Inocula for filamentous fungi are prepared by scraping the surface of stock plates maintained on potato dextrose agar with a moistened sterile dacron swab. The spores and mycelia are then suspended in 10 milliliters of sterile potato dextrose broth and adjusted to 70 percent transmission at 660 nm. The samples to be tested for production of antifungal agent are applied directly to the agar plates as methanol solutions. When the sample to be tested is crude broth, it may be centrifuged prior to application. The assay plates are then incubated at either 28° C. or 37° C. for 24 hours. Following incubation, the inhibition zones are measured. Growths are also noted as to appearance.
# [7] = system: Candida albicans (MY1055); assay: broth microdilution assay (MIC/MFC), Candida albicans (MY1055)
# Experimental: as §1, §2, §3
# [8] = system: Cryptococcus neoformans (MY2061); assay: broth microdilution assay (MIC/MFC), Cryptococcus neoformans (MY2061); settings: 48 hours, 35°-37° C., read-out: Minimum Inhibitory Concentration (MIC)
# Experimental: as §1, §2, §3
# [9] = system: Candida albicans (CLY539); assay: broth microdilution assay (MIC/MFC), Candida albicans (CLY539)
# Experimental: as §1, §2, §3
# Candida krusei = assay: broth microdilution assay (MIC/MFC), Candida krusei; settings: Pichia kudriavzevii
# Experimental: as §1, §2, §3
# [10] = system: Candida guillermondii (MY1019); assay: broth microdilution assay (MIC/MFC), Candida guillermondii (MY1019)
# Experimental: as §1, §2, §3
# [11] = system: Saccharomyces cerevisiae (MY2140); assay: broth microdilution assay (MIC/MFC), Saccharomyces cerevisiae (MY2140)
# Experimental: as §1, §2, §3
# [12] = system: Candida glabrata (MY1381); assay: broth microdilution assay (MIC/MFC), Candida glabrata (MY1381); settings: Nakaseomyces glabratus
# Experimental: as §1, §2, §3
# [13] = system: Aspergillus fumigatus (MY5668); assay: broth microdilution assay (MIC), Aspergillus fumigatus (MY5668); settings: read-out: Minimum Inhibitory Concentration (MIC)
# Experimental: as §4, §5
# Candida albicans (CA2) = assay: broth microdilution assay (MIC/MFC), Candida albicans (CA2)
# Experimental: as §1, §2, §3
# [14] = system: Candida tropicalis (MY1012); assay: broth microdilution assay (MIC/MFC), Candida tropicalis (MY1012)
# Experimental: as §1, §2, §3
# [15] = 24 hours, 35°-37° C., read-out: Minimum Inhibitory Concentration (MIC)
# [16] = no growth or ≤4 colonies on SDA, read-out: Minimum Fungicidal Concentration (MFC)
smiles,measurement,setting,value
C=CC(CCCCC)C1=C(C(=O)C2C3C(C)CC(C(=O)OC)C(O)C3C(O)C2(O)C(=O)/C=C/C)C(=O)NC1=O (centres unmarked) [Compound I],MIC,[1]; [15],2 µg/mL
same,MFC,[1]; [16],4 µg/mL
same,MIC,[2]; [15],< 0.03 µg/mL
same,MFC,[2]; [16],< 0.03 µg/mL
same,MIC,[3]; [15],4 µg/mL
same,MFC,[3]; [16],8 µg/mL
same,MIC,[4],< 0.03 µg/mL
same,MIC,"[5]; 35°-37° C., read-out: Minimum Inhibitory Concentration (MIC)",< 0.03 µg/mL
same,MFC,[5]; [16],< 0.03 µg/mL
same,effectiveness against a panel of fungi (MIC and MFC) relative to amphotericin B,panel of fungi,"effective at concentrations comparable to an established antifungal agent, amphotericin B"
same,inhibition of growth of filamentous fungi (inhibition zones),[6],effectively inhibit growth of the fungal organisms
same,MIC,[7]; [15],< 0.03 µg/mL
same,MFC,[7]; [16],0.06 µg/mL
same,MIC,[8],< 0.03 µg/mL
same,MIC,[9]; [15],0.06 µg/mL
same,MFC,[9]; [16],0.125 µg/mL
same,MIC,Candida krusei; [15],0.06 µg/mL
same,MFC,Candida krusei; [16],0.5 µg/mL
same,MIC,[10]; [15],2 µg/mL
same,MFC,[10]; [16],16 µg/mL
same,MIC,"[11]; Saccharomyces cerevisiae (MY2140), 24 hours, 35°-37° C., read-out: Minimum Inhibitory Concentration (MIC)",4 µg/mL
same,MFC,"[11]; Saccharomyces cerevisiae, read-out: Minimum Fungicidal Concentration (MFC)",0.5 µg/mL
same,MIC,[12]; [15],16 µg/mL
same,MFC,[12]; [16],32 µg/mL
same,MIC,[13],1 µg/mL
same,MIC,Candida albicans (CA2); [15],0.125 µg/mL
same,MFC,Candida albicans (CA2); [16],0.25 µg/mL
same,MIC,[14]; [15],1 µg/mL
same,MFC,[14]; [16],2 µg/mL
